For 24 molecules, EC50 results are on record in patent publication US9278915B2, “Agonists of GPR40” (CONNEXIOS LIFE SCIENCES PVT LTD, priority 2010, dated 2016).

Usually pEC50 stands for the EC50 on a negative log10 scale, so that one unit is a factor of ten.

pEC50: −log10 of the molar value.

T1 sequence (O14842 whole entry): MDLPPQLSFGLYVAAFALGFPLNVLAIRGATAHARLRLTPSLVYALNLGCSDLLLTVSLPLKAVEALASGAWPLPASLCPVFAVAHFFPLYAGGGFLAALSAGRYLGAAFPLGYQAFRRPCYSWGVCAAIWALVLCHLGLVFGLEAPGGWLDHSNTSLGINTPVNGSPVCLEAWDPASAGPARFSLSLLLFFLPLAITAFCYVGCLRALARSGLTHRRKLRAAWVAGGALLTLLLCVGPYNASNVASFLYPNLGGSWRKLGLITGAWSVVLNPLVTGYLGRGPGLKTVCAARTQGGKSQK

The assay concerns the target T1, hGPR40 (Homo sapiens, UniProt O14842).
T1 construct: expressed in transfected cells
The experiment in a line: Calcium flux assay to detect GPR40 activation. The assay is classed as cell-based. The conditions noted are these: CHO-K cells stably expressing hGPR40; Fluo-4 NW; read for 4 min at 5 s intervals. On the procedure: Biological Activity Calium Flux Assay to Detect GPR40 Activation: CHO-K cells stably expressing hGPR40 were selected in a media containing Neomycin/G418. The cells were plated at a concentration of 20,000 cells per well in black 96-well clear bottom tissue culture treated plates. The cells were cultured for 24 h at 37° C. in a humidified 5% CO2 air environment to allow for protein expression. The next day, after removal of media from wells, Fluo-4 NW (Invitrogen) is added at 100 ul/well and the cells were incubated for 30 min at 37° C. and for a further 30 min at RT. All test compounds were diluted to appropriate concentrations in HEPES buffer. Compounds were added to the cells and the wells were read in the BioTEK synergy reader and readings were taken for 4 min with an interval of 5 s.
For orientation: A change in cytosolic calcium serves as a functional read-out for many receptors and channels.
In the case of `CON=C(COc1ccc(CNc2ccc(C3CC3C(=O)O)cc2)cc1)c1ccccc1` (mixture of isomers) [Compound 48, Sodium 2-{4-[(4-{[(2E,2Z)-2-(methoxyimino)-2-phenylethyl]oxy}benzyl)amino]phenyl}cyclopropanecarboxylate], the pEC50 was 7.00 to 8.00.

Turning to `CON=C(COc1ccc(COc2ccc(CCC(=O)O)c(OCC(=O)O)c2)cc1)c1ccccc1` (mixture of isomers) [Compound 89, 3-{2-(Carboxymethoxy)-4-[(4-{[(2E,2Z)-2-(methoxyimino)-2-phenylethyl]oxy}benzyl)oxy]phenyl}propanoic acid], the pEC50 is less than 7.00.

Regarding `CO/N=C(\COc1ccc(COc2ccc(CCC(=O)O)c(O)c2)cc1)c1ccccc1` [Compound 96, 3-{2-Hydroxy-4-[(4-{[(2Z)-2-(methoxyimino)-2-phenylethyl]oxy}benzyl)oxy]phenyl}propanoic acid], the pEC50 is less than 7.00.

Regarding `CO/N=C(\COc1ccc(COc2ccc(C(C#N)CC(=O)O)cc2)cc1)c1ccccc1` (single isomer, unassigned; (-)) [Compound 75, (−)-3-Cyano-3-{4-[(4-{[(2Z)-2-(methoxyimino)-2-phenylethyl]oxy}benzyl)oxy]phenyl}propanoic acid], the pEC50 is greater than 8.00.

Turning to `CO/N=C(\COc1ccc(COc2ccc(C(CC(=O)O)C(N)=O)cc2)cc1)c1ccccc1` (stereo not drawn) [Compound 93, 4-Amino-3-{4-[(4-{[(2Z)-2-(methoxyimino)-2-phenylethyl]oxy}benzyl)oxy]phenyl}-4-oxobutanoic acid], the pEC50 was less than 7.00.

In the case of `CO/N=C(\COc1ccc(COc2ccc(CCC(=O)O)c(OC)c2)cc1)c1ccccc1` [Compound 37, 3-{2-Methoxy-4-[(4-{[(2Z)-2-(methoxyimino)-2-phenylethyl]oxy}benzyl)oxy]phenyl}propanoic acid], the negative-log EC50 (pEC50) was less than 7.00.

On to `CO/N=C(\COc1ccc(COc2ccc(C3CC3C(=O)O)cc2)cc1)c1ccc(C#N)cc1` (stereo not drawn) [Compound 45, 2-{4-[(4-{[(2Z)-2-(4-Cyanophenyl)-2-(methoxyimino)ethyl]oxy}benzyl)oxy]phenyl}cyclopropanecarboxylic acid], for which the pEC50 was 7.00 to 8.00.

Consider `CO/N=C(\COc1ccc(COc2ccc(CCC(=O)O)c(F)c2)cc1)c1ccc(OC)cc1` [Compound 40, 3-{2-Fluoro-4-[(4-{[(2Z)-2-(methoxyimino)-2-(4-methoxyphenyl)ethyl]oxy}benzyl)oxy]phenyl}propanoic acid], for which the pEC50 was greater than 8.00.

With `CO/N=C(\COc1ccc(COc2ccc(C(CC(=O)O)C3CC3)cc2)cc1)c1ccccc1` (stereo not drawn) [Compound 87, 3-Cyclopropyl-3-{4-[(4-{[(2Z)-2-(methoxyimino)-2-phenylethyl]oxy}benzyl)oxy]phenyl}propanoic acid], the pEC50 is less than 7.00.

Take `CO/N=C(/c1ccccc1)c1cccc(COc2ccc(CCC(=O)O)cc2)c1` [Compound 1, 3-[4-({3-[(E,Z)-(methoxyimino)(phenyl)methyl]benzyl}oxy)phenyl]propanoic acid]: the negative-log EC50 (pEC50) was 7.00 to 8.00.

Take `CO/N=C(/COc1ccc(COc2ccc(C(CC(=O)O)c3ccon3)cc2)cc1)c1cccc(C)c1` (racemic) [Compound 24, 3-{4-[(4-{[(2E,2Z)-2-(Methoxyimino)-2-(3-methylphenyl)ethyl]oxy}benzyl)oxy]phenyl}-3-(1,2-oxazol-3-yl)propanoic acid]: the pEC50 is 7.00 to 8.00.

With `CO/N=C(/COc1ccc(COc2ccc(C(C#N)CC(=O)O)cc2)c(F)c1)c1ccccc1` (racemic) [Compound 23, 3-Cyano-3-{4-[(2-fluoro-4-{[(2E,2Z)-2-(methoxyimino)-2-phenylethyl]oxy}benzyl)oxy]phenyl}propanoic acid], the pEC50 is greater than 8.00.

For `CO/N=C(\COc1ccc(COc2ccc(CCC(=O)O)c(-c3c(C)noc3C)c2)cc1)c1ccccc1` [Compound 84, 3-{2-(3,5-Dimethyl-1,2-oxazol-4-yl)-4-[(4-{[(2E,2Z)-2-(methoxyimino)-2-phenylethyl]oxy}benzyl)oxy]phenyl}propanoic acid], the pEC50 is less than 7.00.

Take `CO/N=C(\COc1ccc(COc2ccc(C(C#N)CC(=O)O)c(C)c2)cc1)c1ccccc1` (stereo not drawn) [Compound 62, 3-Cyano-3-{4-[(4-{[(2Z)-2-(methoxyimino)-2-phenylethyl]oxy}benzyl)oxy]-2-methylphenyl}propanoic acid]: the pEC50 was 7.00 to 8.00.

As for `CO/N=C(\COc1ccc(COc2ccc(CCC(=O)O)c(OCC#N)c2)cc1)c1ccccc1` [Compound 88, 3-{2-(Cyanomethoxy)-4-[(4-{[(2Z)-2-(methoxyimino)-2-phenylethyl]oxy}benzyl)oxy]phenyl}propanoic acid], the pEC50 was less than 7.00.

`CO/N=C(/COc1ccc(COc2ccc(COCC(=O)O)cc2)cc1)c1ccccc1` [Compound 30, ({4-[(4-{[(2E,2Z)-2-(Methoxyimino)-2-phenylethyl]oxy}benzyl)oxy]benzyl}oxy)acetic acid]: the pEC50 is less than 7.00.

In the case of `CO/N=C(\COc1ccc(COc2ccc(/C(CC(=O)O)=N\OCc3ccccc3)cc2)cc1)c1ccccc1` [Compound 122, (3E,3Z)-3-[(Benzyloxy)imino]-3-{4-[(4-{[(2Z)-2-(methoxyimino)-2-phenylethyl]oxy}benzyl)oxy]phenyl}propanoic acid], the negative logarithm of the EC50 (pEC50) is less than 7.00.

`CO/N=C(\COc1ccc(COc2ccc(/C(CC(=O)O)=N\OC)cc2)cc1)c1ccccc1` [Compound 68, (3E,3Z)-3-(Methoxyimino)-3-{4-[(4-{[(2Z)-2-(methoxyimino)-2-phenylethyl]oxy}benzyl)oxy]phenyl}propanoic acid]: the pEC50 was less than 7.00.

Regarding `CO/N=C(/COc1ccc(COc2ccc(C(C#N)CC(=O)O)cc2)cc1)c1ccc(OC)cc1` (racemic) [Compound 25, 3-Cyano-3-{4-[(4-{[(2E,2Z)-2-(methoxyimino)-2-(4-methoxyphenyl)ethyl]oxy}benzyl)oxy]phenyl}propanoic acid], the pEC50 was greater than 8.00.

Take `N#CC(CC(=O)O)c1ccc(OCc2ccc(OC/C(=N\O)c3ccccc3)cc2)cc1` (stereo not drawn) [Compound 78, 3-Cyano-3-{4-[(4-{[(2E,2Z)-2-(hydroxyimino)-2-phenylethyl]oxy}benzyl)oxy]phenyl}propanoic acid]: the pEC50 is 7.00 to 8.00.

As to `CO/N=C(/c1ccccc1)c1cccc(COc2ccc(C(C#N)CC(=O)O)cc2)c1` (stereo not drawn) [Compound 12, 3-Cyano-3-[4-({3-[(E,Z)-(methoxyimino)(phenyl)methyl]benzyl}oxy)phenyl]propanoic acid], the pEC50 is less than 7.00.

As to `CO/N=C(/c1ccccc1)c1ccc(CNc2ccc(CCC(=O)O)cc2)cc1` [Compound 3, 3-[4-({4-[(E,Z)-(Methoxyimino)(phenyl)methyl]benzyl}amino)phenyl]propanoic acid], the pEC50 is less than 7.00.

For `CO/N=C(\COc1ccc(COc2ccc([C@H]3C[C@H]3C(=O)O)cc2)cc1)c1ccc(C#N)cc1` [Compound 63, (1R,2S)-2-{4-[(4-{[(2Z)-2-(4-Cyanophenyl)-2-(methoxyimino)ethyl]oxy}benzyl)oxy]phenyl}cyclopropanecarboxylic acid], the negative-log EC50 (pEC50) was less than 7.00.

For the molecule `CO/N=C(\COc1ccc(COc2ccc(C(CC(=O)O)c3ccon3)cc2)cc1)c1ccccc1` (stereo not drawn) [Compound 17, 3-{4-[(4-{[(2Z)-2-(methoxyimino)-2-phenylethyl]oxy}benzyl)oxy]phenyl}-3-(1,2-oxazol-3-yl)propanoic acid], the pEC50 is 7.00 to 8.00.
